pIC50, pKi: −log10 of the molar value.
Tests used:
Homo sapiens [1] = species on record: Homo sapiens; test: Concentration of test compound required to inhibit 50% LTB4-induced degranulation of human PMNs; type: functional
Homo sapiens [2] = species on record: Homo sapiens; test: Concentration of test compound required to inhibit 50% LTB4-induced calcium mobilization in intact human PMNs; type: functional
[3] = molecular target: Leukotriene B4 receptor 1 (Homo sapiens, UniProt Q15722); test: Binding affinity at leukotriene B4 receptor on intact human PMNs by displacement of [3H]LTB4.
Mus musculus [4] = test: Effective concentration required per ear of mouse for inhibition of edematous response; type: functional
Mus musculus [5] = species on record: Mus musculus; test: Compound was tested for its effect on mouse ear for reduction of PMN infiltration; type: functional
Mus musculus [6] = species on record: Mus musculus; test: Effective concentration required for inhibition of LTB4-induced (250 ng/mL) PMN infiltration; type: functional
Mus musculus [7] = species on record: Mus musculus; test: Effective concentration required per ear of mouse for inhibition of neutrophil infiltration; type: functional

Chain of Leukotriene B4 receptor 1 (Q15722 whole entry): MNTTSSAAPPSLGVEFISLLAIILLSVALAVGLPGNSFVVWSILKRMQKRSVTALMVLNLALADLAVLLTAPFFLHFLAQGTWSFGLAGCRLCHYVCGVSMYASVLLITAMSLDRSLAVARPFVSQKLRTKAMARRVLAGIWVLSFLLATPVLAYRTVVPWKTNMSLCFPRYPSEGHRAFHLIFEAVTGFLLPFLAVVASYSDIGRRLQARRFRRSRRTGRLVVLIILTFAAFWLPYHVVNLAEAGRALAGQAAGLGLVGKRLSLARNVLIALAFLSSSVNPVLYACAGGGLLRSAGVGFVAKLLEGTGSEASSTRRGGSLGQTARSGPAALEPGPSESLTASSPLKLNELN

Row | Structure (SMILES) | pIC50 (Homo sapiens [1]) | pIC50 (Homo sapiens [2]) | pKi [3] | ED50 (Mus musculus [4]) [mg] | Reduction (Mus musculus [5]) [%] | ED50 (Mus musculus [6]) [mg/kg] | ED50 (Mus musculus [7]) [mg]
1 | COc1ccc(CCCCCCCCOc2ccc(C[S+]([O-])Cc3cccc(C(=O)O)c3)nc2/C=C/C(=O)O)cc1 (centres undefined) | 5.59 | 5.48 | 6.62 | – | – | – | –
2 | O=C(O)/C=C/c1nc(CSCc2cccc(C(=O)O)c2)ccc1OCCCCCCCCc1ccccc1 | 6.30 | 6.49 | 7.81 | – | – | – | –
3 | COc1ccc(CCCCOc2ccc(CSCc3cccc(C(=O)O)c3)nc2/C=C/C(=O)O)cc1 | 6.11 | 6.11 | 8.04 | – | – | – | –
4 | COc1ccc(CCCCCCCCOc2ccc(C[S+]([O-])Cc3ccc(C(=O)O)cc3)nc2/C=C/C(=O)O)cc1 (centres undefined) | – | 5.15 | 6.79 | – | – | – | –
5 | COc1ccc(CCCCOc2ccc(CSCc3cccc(C(=O)O)c3)nc2CCC(=O)O)cc1 | 5.42 | 5.72 | 7.55 | – | – | – | –
6 | COc1ccc(CCCCCCCCOc2ccc(CSc3cccc(C(=O)O)c3)nc2/C=C/C(=O)O)cc1 | 6.00 | 6.26 | – | – | – | – | –
7 | O=C(O)/C=C/c1nc(CSCc2cccc(C(=O)O)c2)ccc1OCCCCc1ccccc1 | 5.77 | 6.30 | 8.32 | – | – | – | –
8 | COc1ccc(CCCCCCCCOc2ccc(CSCc3ccc(C(=O)O)cc3)nc2/C=C/C(=O)O)cc1 | 6.37 | 6.76 | 8.24 | – | – | – | –
9 | COc1ccc(CCCCCCCCOc2ccc(CS(=O)(=O)Cc3cccc(C(=O)O)c3)nc2/C=C/C(=O)O)cc1 | 6.00 | 6.04 | 7.28 | – | – | – | –
10 | COc1ccc(CCCCCCCCOc2ccc(CSCc3cccc(C(=O)O)c3)nc2CCC(=O)O)cc1 | 6.72 | 6.62 | 8.10 | – | – | – | –
11 | COc1ccc(CCCCCCCCOc2ccc(C[S+]([O-])c3cccc(C(=O)O)c3)nc2/C=C/C(=O)O)cc1 (centres undefined) | 5.49 | 5.41 | 6.78 | – | – | – | –
12 | CCCc1c(OCCCOc2ccc(C(=O)NC)c(OC)c2CC2CC2)ccc2c1O[C@H](CCC(=O)O)CC2 | – | – | 8.89 | – | – | – | –
13 | COc1ccc(CCCCCCCCOc2ccc(CSCc3ccccc3C(=O)O)nc2/C=C/C(=O)O)cc1 | – | 6.15 | 6.95 | – | – | – | –
14 | COc1ccc(CCCCCCCCOc2ccc(CSCc3cccc(C(=O)O)c3)nc2/C=C/C(=O)O)cc1 | – | 6.88 | – | 0.58 | 92 | 7.1 | 0.39

Reference: ChEMBL document CHEMBL1127355, “(E)-3-[[[[6-(2-carboxyethenyl)-5-[[8-(4- methoxyphenyl)octyl]oxy]-2-pyridinyl]-methyl]thio]methyl]benzoic acid and related compounds: high affinity leukotriene B4 receptor antagonists” (J Med Chem, 1994)
